According to patent publication US20240336641A1, “3-PYRROLIDINE-INDOLE DERIVATIVES AS SEROTONERGIC PSYCHEDELIC AGENTS FOR THE TREATMENT OF CNS DISORDERS” (Mindset Pharma Inc., priority 2020, published 2024):

What was measured:
[1] = In vivo pharmacokinetics in rats (IV and PO); settings: male SD rats
Procedure: (§1) Formulations were administered intravenously (i.v.) via the tail vein or orally (p.o.) by gavage with disposable feeding needles.
(§2) Serial blood samples were collected via tail snip. Terminal blood samples will be collected under isoflurane anesthesia by cardiac puncture.
(§3) All blood samples were transferred into K2EDTA tubes on wet ice and centrifuged within 5 min (3200×g for 5 min at 4° C.) to obtain plasma. Plasma will be stored at −80° C. until analysis.
(§4) • i. Analysis software: Phoenix® WinNonlin® 8.2 (Pharsight, Certara, Mountainview, CA) • ii. Analysis methods: non-compartmental analysis, linear up/log down trapezoidal rule • iii. PK parameters: C0, t1/2, AUC0-last. AUC0-∞, CL, Vss, MRT, tmax(po), Cmax(po), F, as appropriate

[2] = In vivo pharmacokinetics in mice (IV and PO); settings: male C57BL/6 mice
Procedure: Male C57BL/6 mice (25-30 g) from Charles River Labs were acclimatized for a minimum of 5 days prior to dosing. Body weights will be recorded on the day of dosing.
Animals dosed p.o. were deprived of food overnight and fed ˜2 h following dosing.
as §1, §2, §3, §4

[3] = tested on: head-twitch response (HTR) in male C57BL6 mice; assay: Mouse head twitch response (HTR); assay type: in vivo; settings: I-2 10 mg/kg SC, M100907 0.5 mg/kg IP pretreatment
Procedure: FIG. 1. is a graph showing the effect of various doses of exemplary compound of Formula I, 1-2, on head-twitch response (HTR) in male C57BL6 mice. The mice were treated with compound I-2 (0.03-10 mg/kg, SC) by SC route (N=6 mice/dose), and the total number of head twitches were recorded over a 1 h period. Data is expressed as mean±SEM. The induction of head twitches elicited by 5-HT2A receptor agonists is believed to represent a behavioural proxy of their psychedelic effects.
Male C57BL6 mice were pretreated with the selective 5-HT2A receptor antagonist M100907 (0.5 mg/kg IP; also known as volinanserin) prior to the administration of exemplary compound of Formula I, 1-2 (10 mg/kg SC). […] Data is expressed as mean±SEM.
Male, C57BL/6J mice (body weight range 20-30 g) were dosed with the appropriate dose of test article, and following a 1-minute pre-treatment time, placed in individual observation chambers. Animals were visually assessed for the incidence head twitches continuously over a 1 hr period. […] Each head twitch was individually counted by a trained observer, and the data expressed as the mean±SEM of 6-10 mice per group. […]
The effect of various doses of exemplary compound of Formula I, 1-2, on head-twitch response (HTR) in male C57BL6 mice were measured. […] Data is expressed as mean±SEM. […]

Row | Structure (SMILES) | biotransformation after administration ([1]; IV (footnote Table 7)) | biotransformation after administration ([1]; oral (footnote Table 8)) | biotransformation after administration ([2]; IV (footnote Table 5)) | biotransformation after administration ([2]; PO table (footnote Table 6 prints IV)) | effect on head-twitch response (HTR) after pretreatment with selective 5-HT2A antagonist M100907 [3]
1 | [2H]C([2H])(c1c[nH]c2cccc(OC)c12)[C@H]1CCCN1C([2H])([2H])[2H] [Compound I-39, (R)-4-methoxy-3-((1-(methyl-d3)pyrrolidin-2-yl)methyl-d2)-1H-indole] | ^(a)I-39 is hydrolysed to I-44 after IV administration | ^(a)I-39 is hydrolysed to I-44 after oral administration | ^(a)I-39 is hydrolysed to I-44 after IV administration | ^(a)1-39 is hydrolysed to I-44 after IV administration | –
2 | [2H]C([2H])([2H])N1CCC[C@@H]1Cc1c[nH]c2cccc(O)c12 [Compound I-2, (R)-3-((1-(methyl-d3)pyrrolidin-2-yl)methyl)-1H-indol-4-ol] | – | – | – | – | completely blocked
